Publication PMC3897205 (Bioorganic & medicinal chemistry letters, 2012)

What follows are molecules tested against T1, hM1 (Homo sapiens, UniProt P11229) (assay: not given). Conditions: SAR discussion of Table 1 analogs.
T1 sequence (P11229 1-460): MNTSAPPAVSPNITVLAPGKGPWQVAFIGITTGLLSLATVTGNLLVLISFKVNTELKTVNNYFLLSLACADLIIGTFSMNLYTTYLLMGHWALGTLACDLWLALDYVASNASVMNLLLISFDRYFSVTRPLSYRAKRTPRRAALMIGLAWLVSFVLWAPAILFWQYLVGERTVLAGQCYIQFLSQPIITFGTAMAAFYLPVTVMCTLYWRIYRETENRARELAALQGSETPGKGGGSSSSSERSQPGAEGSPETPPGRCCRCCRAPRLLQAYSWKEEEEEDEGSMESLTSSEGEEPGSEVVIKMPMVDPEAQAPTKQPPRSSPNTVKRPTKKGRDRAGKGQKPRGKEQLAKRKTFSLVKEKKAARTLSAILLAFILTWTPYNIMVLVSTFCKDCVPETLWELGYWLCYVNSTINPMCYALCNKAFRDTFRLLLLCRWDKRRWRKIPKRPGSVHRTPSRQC
Assay type: cell-based

Q: Which “hM1 antagonist activity in words” value does the source give for `CC(C)CN1CCN(C(=O)C(Cc2ccccc2)c2ccccc2)CC1` (centres unmarked) [Compound 5c] here?
A: nearly abolished antagonist activity

Q: With `CN(C)CCN(C)C(=O)C(Cc1ccccc1)c1ccccc1` (centres unmarked) [Compound 5n] as the molecule, how does the “hM1 antagonist activity in words” value read?
A: large losses in potency

Q: `O=C(C(Cc1ccccc1)c1ccccc1)N1CCCNCC1` (centres unmarked) [Compound 5z] was tested. Which “hM1 antagonist activity in words” value did it give?
A: nearly complete loss of activity

Q: With `O=C(C(Cc1ccccc1)c1ccccc1)N1CCN(c2ccncc2)CC1` (centres unmarked) [Compound 5s] as the molecule, how does the “hM1 antagonist activity in words” value read?
A: minimal antagonist activity

Q: How did the “hM1 antagonist activity in words” value turn out when `O=C(C(Cc1ccccc1)c1ccccc1)N1CCNCC1` (centres unmarked) [Compound 5d] was run?
A: loss of activity

Q: With `CC(C)N1CCCN(C(=O)C(Cc2ccccc2)c2ccccc2)CC1` (centres unmarked) [Compound 5w] as the molecule, how does the “hM1 antagonist activity in words” value read?
A: retained moderate potency

Q: For `CN1CCN(C(=O)[C@H](Cc2ccccc2)c2ccccc2)CC1` (single isomer, unassigned) [Compound 6], which “hM1 antagonist activity in words” value is on record?
A: moderate improvement in potency

Q: How did the “hM1 antagonist activity in words” value turn out when `O=C(C(Cc1ccccc1)c1ccccc1)N1CC[C@H]2CCCN2CC1` (some centres unmarked) [Compound 5y] was run?
A: retained moderate potency

Q: With `COCCN1CCN(C(=O)C(Cc2ccccc2)c2ccccc2)CC1` (centres unmarked) [Compound 5r] as the molecule, how does the “hM1 antagonist activity in words” value read?
A: significant drop in potency

Q: `C[N+]1(C)CCN(C(=O)C(Cc2ccccc2)c2ccccc2)CC1` (centres unmarked) [Compound 5h] was tested. Which “hM1 antagonist activity in words” value did it give?
A: only modest activity

Q: How did the “hM1 antagonist activity in words” value turn out when `O=C(C(Cc1ccccc1)c1ccccc1)N1CCN(CC(F)(F)F)CC1` (centres unmarked) [Compound 5t] was run?
A: complete loss of activity

Q: With `CN(C)CCNC(=O)C(Cc1ccccc1)c1ccccc1` (centres unmarked) [Compound 5m] as the molecule, how does the “hM1 antagonist activity in words” value read?
A: large losses in potency

Same assay, conditions: against hM1-5, calcium mobilization assay

Q: How did the “selectivity for hM1” value turn out when `CN1CCN(C(=O)[C@@](F)(Cc2ccccc2)c2ccccc2)CC1` (single isomer, unassigned) [Compound 8f] was run?
A: modest selectivity for hM1

Same assay, conditions: fold change in words

Q: `CN1CCCN(C(=O)C(Cc2ccccc2)c2ccccc2)CC1` (centres unmarked) [Compound 5u] was tested. Which “change in hM1 antagonist potency relative to a comparator compound” value did it give?
A: only a twofold decrease in potency

Q: Which “change in hM1 antagonist potency relative to a comparator compound” value does the source give for `CCN1CCCN(C(=O)C(Cc2ccccc2)c2ccccc2)CC1` (centres unmarked) [Compound 5v] here?
A: roughly equipotent with 4

Q: For `CC(C)N1CCN(C(=O)C(Cc2ccccc2)c2ccccc2)CC1` (centres unmarked) [Compound 5b], which “change in hM1 antagonist potency relative to a comparator compound” value is on record?
A: only a minor potency decrease

Q: For `CCN1CCN(C(=O)C(Cc2ccccc2)c2ccccc2)CC1` (centres unmarked) [Compound 5a], which “change in hM1 antagonist potency relative to a comparator compound” value is on record?
A: sixfold drop in potency

Q: How did the “change in hM1 antagonist potency relative to a comparator compound” value turn out when `CCN1CCN(C(=O)C(Cc2ccccc2)c2ccccc2)CC1(C)C` (centres unmarked) [Compound 5g] was run?
A: increase potency roughly sixfold

Q: With `CN1CCN(C(=O)C(Cc2ccccc2)c2ccccc2)CC1` (centres unmarked) [Compound 4] as the molecule, how does the “change in hM1 antagonist potency relative to a comparator compound” value read?
A: roughly fourfold improvement in antagonist potency

Q: Which “change in hM1 antagonist potency relative to a comparator compound” value does the source give for `CCN1CCN(C(=O)C(Cc2ccccc2)c2ccccc2)CC1C` (centres unmarked) [Compound 5f] here?
A: increase potency roughly sixfold

The molecules below were run against T1, hM1 (assay: [3H]NMS radioligand displacement at hM1 under equilibrium conditions). Conditions: not given.
Assay type: binding

Q: For `CN1CCN(C(=O)[C@H](Cc2ccccc2)c2ccccc2)CC1` (single isomer, unassigned) [Compound 6], which “displacement of radiolabeled NMS” value is on record?
A: completely displace radiolabeled NMS

Q: With `CN1CCN(C(=O)[C@@](F)(Cc2ccccc2)c2ccccc2)CC1` (single isomer, unassigned) [Compound 8f] as the molecule, how does the “displacement of radiolabeled NMS” value read?
A: completely displace radiolabeled NMS

Each molecule was assayed against T2, M1 (Homo sapiens, UniProt P11229) (assay: Schild analysis, calcium mobilization in M1-expressing CHO cells). Conditions: antagonism of ACh; mean ± S.E.M. of three experiments in triplicate.
T2 sequence (P11229 1-460): T1 sequence (P11229 1-460)
Assay type: cell-based

Q: How did the Schild regression slope turn out when `CN1CCN(C(=O)[C@H](Cc2ccccc2)c2ccccc2)CC1` (single isomer, unassigned) [Compound 6] was run?
A: 0.97 ± 0.02

Q: `CN1CCN(C(=O)[C@@](F)(Cc2ccccc2)c2ccccc2)CC1` (single isomer, unassigned) [Compound 8f] was tested. Which Schild regression slope did it give?
A: 1.07 ± 0.02

Same assay, conditions: calcium mobilization assay

Q: How did the “mode of antagonism of M1 response to ACh” value turn out when `CN1CCN(C(=O)[C@H](Cc2ccccc2)c2ccccc2)CC1` (single isomer, unassigned) [Compound 6] was run?
A: competitively antagonizes M1 response to ACh in a concentration-dependent manner

Q: For `CN1CCN(C(=O)[C@@](F)(Cc2ccccc2)c2ccccc2)CC1` (single isomer, unassigned) [Compound 8f], which “mode of antagonism of M1 response to ACh” value is on record?
A: competitively antagonizes M1 response to ACh in a concentration-dependent manner
